Source: US20260085073A1, “PYRAZOLYLCARBOXAMIDE COMPOUNDS AND THEIR USE IN THERAPY” (Hotspot Therapeutics, Inc., priority 2022, published 2026)

target: T1, MALT1 (Homo sapiens, UniProt Q9UDY8); experiment: MALT1 inhibition assay (MALT-1 Fluorogenic Peptide Cleavage Assay, Ac-LRSR-AMC substrate); type: biochemical; conditions: Avi-tagged FL MALT-1, 30 min pre-incubation, 90 min reaction at room temperature, fluorescence intensity
T1 construct: Avi-tagged FL MALT-1 (Pharmaron, stored at −70° C.); Avi-tag
T1 sequence (Q9UDY8 1-824): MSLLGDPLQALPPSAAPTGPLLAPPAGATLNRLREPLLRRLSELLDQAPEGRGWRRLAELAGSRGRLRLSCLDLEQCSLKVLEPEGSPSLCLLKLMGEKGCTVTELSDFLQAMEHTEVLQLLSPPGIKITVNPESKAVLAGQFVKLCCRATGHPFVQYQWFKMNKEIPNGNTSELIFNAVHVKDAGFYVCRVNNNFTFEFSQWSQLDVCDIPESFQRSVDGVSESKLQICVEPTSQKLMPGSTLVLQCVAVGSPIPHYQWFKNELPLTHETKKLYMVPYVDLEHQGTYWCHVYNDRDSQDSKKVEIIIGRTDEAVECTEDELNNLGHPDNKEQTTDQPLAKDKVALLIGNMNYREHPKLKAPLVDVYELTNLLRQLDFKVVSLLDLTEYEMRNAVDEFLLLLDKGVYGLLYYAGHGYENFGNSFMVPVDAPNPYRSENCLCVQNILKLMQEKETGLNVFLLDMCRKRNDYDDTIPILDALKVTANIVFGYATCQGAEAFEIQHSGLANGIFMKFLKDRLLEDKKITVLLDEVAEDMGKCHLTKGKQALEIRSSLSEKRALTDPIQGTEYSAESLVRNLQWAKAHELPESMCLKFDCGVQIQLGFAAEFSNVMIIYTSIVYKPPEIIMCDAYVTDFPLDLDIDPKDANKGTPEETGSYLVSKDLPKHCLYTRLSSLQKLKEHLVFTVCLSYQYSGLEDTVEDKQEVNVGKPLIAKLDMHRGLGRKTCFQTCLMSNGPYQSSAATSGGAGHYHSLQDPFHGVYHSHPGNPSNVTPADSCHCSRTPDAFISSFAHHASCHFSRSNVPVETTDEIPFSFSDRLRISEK
Method in brief: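 Full-length Avi-tagged MALT1 pre-incubated 30 min at room temperature with compounds (2% DMSO final) in HEPES pH 6.89, sodium citrate, TCEP, EDTA, CHAPS buffer. Ac-LRSR-AMC added from 50 µM (Km) or […] working stocks; 90 min at room temperature, AMC fluorescence (ex 342/em 441 nm); IC50 from % inhibition curves.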

SMILES	IC50 [µM]
Cn1nc(-c2cccc3ccoc23)c(C(F)(F)F)c1C(=O)Nc1cnc(-n2nccn2)c(C(F)F)c1 [Compound I-128]	< 0.5
Cn1nc(-c2cccc3ccoc23)c(C(F)(F)F)c1C(=O)Nc1cnc(-n2nccn2)c(Cl)c1 [Compound I-129]	< 0.5
Cn1nc(OCc2ccccc2)c(C(F)(F)F)c1C(=O)Nc1ccnc(C(F)(F)F)c1 [Compound I-130]	0.5 to 2.5
Cn1nc(-c2cccc3c(=O)[nH]ccc23)c(C(F)(F)F)c1C(=O)Nc1cnc(-n2nccn2)c(C(F)F)c1 [Compound I-131]	< 0.5
Cn1nc(-c2cccc3c(=O)[nH]ccc23)c(C(F)(F)F)c1C(=O)Nc1cnc(-n2nccn2)c(C(F)(F)F)c1 [Compound I-132]	< 0.5
Cn1nc(-c2cccc3c(=O)[nH]ccc23)c(C(F)(F)F)c1C(=O)Nc1cnc(-n2nccn2)c(Cl)c1 [Compound I-133]	< 0.5
Cn1nc(-c2ccccc2)c(C(F)(F)F)c1C(=O)Nc1ccnc(C2CC2)c1 [Compound I-134]	2.5 to 10
Cc1cc(NC(=O)c2c(C(F)(F)F)c(-c3ccccc3)nn2C)cnc1-n1nccn1 [Compound I-135]	0.5 to 2.5
Cc1cc(NC(=O)c2c(C(F)(F)F)c(-c3ccccc3)nn2C)cnc1-n1ccnn1 [Compound I-136]	2.5 to 10
Cn1nc(-c2ccccc2)c(C(F)(F)F)c1C(=O)Nc1cc(C2CC2)ccn1 [Compound I-137]	> 10
Cn1nc(-c2ccccc2)c(C(F)(F)F)c1C(=O)Nc1cc(C(F)(F)F)ccn1 [Compound I-138]	0.5 to 2.5
Cn1nc(-c2cccc3cnccc23)c(C(F)(F)F)c1C(=O)Nc1cnc(-n2nccn2)c(Cl)c1 [Compound I-140, N-(5-chloro-6-(2H-1,2,3-triazol-2-yl)pyridin-3-yl)-3-(isoquinolin-5-yl)-1-methyl-4-(trifluoromethyl)-1H-pyrazole-5-carboxamide]	< 0.5
COc1ncc(NC(=O)c2c(C(F)(F)F)c(-c3cccc4ncccc34)nn2C)cc1C#N [Compound I-141]	2.5 to 10
Cn1nc(C(=O)Nc2cnc(-n3nccn3)c(Cl)c2)c(C(F)(F)F)c1-c1cccc2c1OCO2 [Compound I-142]	< 0.5
Cn1nc(Cc2ccccc2)c(C(F)(F)F)c1C(=O)Nc1cnc(-n2nccn2)c(Cl)c1 [Compound I-143]	0.5 to 2.5
Cn1nc(-c2cccc3c2OCO3)c(C(F)(F)F)c1C(=O)Nc1cnc(-n2nccn2)c(Cl)c1 [Compound I-144]	< 0.5
Cn1nc(-c2cccc3occc23)c(C(F)(F)F)c1C(=O)Nc1cnc(-n2nccn2)c(Cl)c1 [Compound I-145]	< 0.5
Cn1nc(-c2cccc3occc23)c(C(F)(F)F)c1C(=O)Nc1cnc(-n2nccn2)c(C(F)(F)F)c1 [Compound I-146]	< 0.5
Cn1nc(-c2ccccc2)c(C(F)(F)F)c1C(=O)Nc1ccnc(C(F)(F)F)c1 [Compound I-147, 1-methyl-3-phenyl-4-(trifluoromethyl)-N-(2-(trifluoromethyl)pyridin-4-yl)-1H-pyrazole-5-carboxamide]	< 0.5
Cn1nc(C(=O)Nc2cnc(-n3nccn3)c(Cl)c2)c(C(F)(F)F)c1-c1ccccc1 [Compound I-148]	< 0.5
Cn1nc(C(=O)Nc2ccc(C(=O)N3CC(O)C3)c(Cl)c2)c(C(F)(F)F)c1-c1ccccc1 [Compound I-149]	> 10
Cn1nc(-c2ccccc2)c(C(F)(F)F)c1C(=O)Nc1ccc(C(=O)N2CC(O)C2)c(Cl)c1 [Compound I-150]	2.5 to 10
Cn1nc(-c2ccccc2)c(C(F)(F)F)c1C(=O)Nc1cnc(-n2nccn2)c(C(F)(F)F)c1 [Compound I-151]	< 0.5
Cn1nc(-c2ccccc2)c(C(F)(F)F)c1C(=O)Nc1cnc(-n2nccn2)c(Cl)c1 [Compound I-152]	< 0.5
Cn1nc(-c2ccccc2)c(C(F)(F)F)c1C(=O)Nc1cnc(-n2nccn2)c(C#N)c1 [Compound I-153]	< 0.5
Cn1nc(-c2cccc3c2OC(F)(F)O3)c(C(F)(F)F)c1C(=O)Nc1cnc(-n2nccn2)c(Cl)c1 [Compound I-154]	< 0.5

SMILES	IC50 [µM]
Cn1nc(C(=O)Nc2ccc(C(=O)N3CC(O)C3)c(Cl)c2)cc1-c1ccccc1 [Compound I-155]	> 10
COc1ncc(NC(=O)c2c(C(F)(F)F)c(-c3cccc4ccoc34)nn2C)cc1C#N [Compound I-156]	< 0.5
Cn1nc(-c2cccc3c(=O)[nH]ccc23)c(C(F)(F)F)c1C(=O)Nc1cnc(-n2nccn2)c(C#N)c1 [Compound I-157]	< 0.5
Cn1nc(-c2cccc3c2OCC3)c(C(F)(F)F)c1C(=O)Nc1ccnc(C(F)(F)F)c1 [Compound I-158, 3-(2,3-dihydrobenzofuran-7-yl)-1-methyl-4-(trifluoromethyl)-N-(2-(trifluoromethyl)pyridin-4-yl)-1H-pyrazole-5-carboxamide]	< 0.5
Cn1nc(-c2cccc3c2OCC3)c(C(F)(F)F)c1C(=O)Nc1cnc(-n2nccn2)c(Cl)c1 [Compound I-159]	< 0.5
Cn1nc(-c2cncc3ccccc23)c(C(F)(F)F)c1C(=O)Nc1ccnc(C(F)(F)F)c1 [Compound I-160]	0.5 to 2.5
Cn1nc(-c2cccc3ncnn23)c(C(F)(F)F)c1C(=O)Nc1ccnc(C(F)(F)F)c1 [Compound I-162, 3-([1,2,4]triazolo[1,5-a]pyridin-5-yl)-1-methyl-4-(trifluoromethyl)-N-(2-(trifluoromethyl)pyridin-4-yl)-1H-pyrazole-5-carboxamide]	0.5 to 2.5
Cn1nc(-c2cccc3nccn23)c(C(F)(F)F)c1C(=O)Nc1cnc(-n2nccn2)c(Cl)c1 [Compound I-163]	< 0.5
[2H]C([2H])([2H])n1nc(-c2ccccc2)c(C(F)(F)F)c1C(=O)Nc1cnc(-n2nccn2)c(Cl)c1 [Compound I-165]	< 0.5
[2H]C([2H])([2H])n1nc(C(=O)Nc2cnc(-n3nccn3)c(Cl)c2)c(C(F)(F)F)c1-c1ccccc1 [Compound I-166]	< 0.5
[2H]C([2H])([2H])n1nc(-c2ccccc2)c(C(F)(F)F)c1C(=O)Nc1cnc(-n2nccn2)c(C#N)c1 [Compound I-167]	< 0.5
CCn1nc(C(=O)Nc2cnc(-n3nccn3)c(Cl)c2)c(C(F)(F)F)c1-c1ccccc1 [Compound I-168]	< 0.5
CCn1nc(-c2ccccc2)c(C(F)(F)F)c1C(=O)Nc1cnc(-n2nccn2)c(Cl)c1 [Compound I-170]	< 0.5
CN(C)CCn1nc(-c2ccccc2)c(C(F)(F)F)c1C(=O)Nc1cnc(-n2nccn2)c(Cl)c1 [Compound I-171, N-(5-chloro-6-(2H-1,2,3-triazol-2-yl)pyridin-3-yl)-1-(2-(dimethylamino)ethyl)-3-phenyl-4-(trifluoromethyl)-1H-pyrazole-5-carboxamide]	0.5 to 2.5
COCCn1nc(-c2ccccc2)c(C(F)(F)F)c1C(=O)Nc1cnc(-n2nccn2)c(Cl)c1 [Compound I-172]	0.5 to 2.5
COCCn1nc(C(=O)Nc2cnc(-n3nccn3)c(Cl)c2)c(C(F)(F)F)c1-c1ccccc1 [Compound I-173]	> 10
COCCn1nc(-c2ccccc2)c(C(F)(F)F)c1C(=O)Nc1cnc(-n2nccn2)c(C#N)c1 [Compound I-174]	0.5 to 2.5
CN(C)CCn1nc(-c2ccccc2)c(C(F)(F)F)c1C(=O)Nc1cnc(-n2nccn2)c(C#N)c1 [Compound I-175]	2.5 to 10
O=C(Nc1cnc(-n2nccn2)c(Cl)c1)c1c(C(F)(F)F)c(-c2ccccc2)nn1C1COC1 [Compound I-176]	2.5 to 10
N#Cc1cc(NC(=O)c2c(C(F)(F)F)c(-c3ccccc3)nn2C2COC2)cnc1-n1nccn1 [Compound I-177]	2.5 to 10
O=C(Nc1ccnc(C(F)(F)F)c1)c1c(C(F)(F)F)c(-c2ccccc2)nn1C1COC1 [Compound I-178]	> 10
O=C(Nc1cnc(-n2nccn2)c(Cl)c1)c1c(C(F)(F)F)c(-c2ccccc2)nn1C(F)F [Compound I-179, N-(5-chloro-6-(2H-1,2,3-triazol-2-yl)pyridin-3-yl)-1-(difluoromethyl)-3-phenyl-4-(trifluoromethyl)-1H-pyrazole-5-carboxamide]	< 0.5
O=C(Nc1cnc(-n2nccn2)c(Cl)c1)c1nn(C(F)F)c(-c2ccccc2)c1C(F)(F)F [Compound I-180]	< 0.5
O=C(Nc1cnc(-n2nccn2)c(Cl)c1)c1cc(-c2ccccc2)nn1C(F)F [Compound I-181]	2.5 to 10
O=C(Nc1cnc(-n2nccn2)c(Cl)c1)c1cc(-c2ccccc2)n(C(F)F)n1 [Compound I-182]	> 10
